US4558122A, “Stable s-adenosylmethionine derivatives, the process for their preparation, and therapeutic compositions which contain them as active principle” (Bioresearch S.P.A., priority 1981, dated 1985)
Like-named read-outs stand apart in the source and are kept apart here.

Tests used:
[1] = absorption "in situ" (intestinal sacs); assay type: in vivo, rat; conditions: rat, in situ intestinal sacs, 2 mg in 1 ml physiological solution, rats, H2 SO4 salts, m 0 or 1, n 3, read-out: PRODUCT ABSORPTION in sacs
Procedure: (§1) In the 1st test, known as "in situ" (intestinal sacs), 2 mg of each product to be tested in 1 ml of physiological solution were placed in intestinal sacs provided in rats under ether anesthesia. The rats were killed after 2 hours, and the residual content of the sac (wall+content) was analysed. In the 2nd test, portions of intestine turned inside out were used, incubated at 37° C. in accordance with Krebs Ringer against an external product concentration of 10^-4 M. The products were all salified with H2 SO4 to give salts in which m was 0 or 1 and n was 3.

[2] = tested on: portions of intestine turned inside out; assay: absorption by portions of intestine turned inside out; assay type: in vitro ADME; conditions: 37° C., Krebs Ringer, external concentration 10^-4 M; H2 SO4 salts, m 0 or 1, n 3
Procedure: In the 2nd test, portions of intestine turned inside out were used, incubated at 37° C. in accordance with Krebs Ringer against an external product concentration of 10^-4 M. The products were all salified with H2 SO4 to give salts in which m was 0 or 1 and n was 3.

physchem = assay type: physicochemical; conditions: water
[3] = stability in the dry state at 45° C.; assay type: physicochemical
intestinal sacs = assay: absorption "in situ" (intestinal sacs); assay type: in vivo, rat; conditions: 2 mg in 1 ml physiological solution, rats, 2 hours; H2 SO4 salts, m 0 or 1, n 3
Procedure: as §1

Molecule: CCCOC(=O)[C@@H](N)CC[S+](C)C[C@H]1O[C@@H](n2cnc3c(N)ncnc32)[C@H](O)[C@@H]1O (stereo partly shown) [C3 H7 H H, SAM n-propyl ester]
- Fa at 2 h [1]: 61%
- PRODUCT ABSORPTION intestine inside out [2]: 0.045 nmoles/h/mg tissue

Molecule: CCCCOC(=O)[C@@H](N)CC[S+](C)C[C@H]1O[C@@H](n2cnc3c(N)ncnc32)[C@H](O)[C@@H]1O (stereo partly shown) [C4 H9, SAM n-butyl ester]
- Fa at 2 h [1]: 65%
- PRODUCT ABSORPTION intestine inside out [2]: 0.037 nmoles/h/mg tissue
- degraded at 0.25 h (physchem; pH 2): 2%
- degraded at 0.5 h (physchem; pH 2): 4%
- degraded at 1 h (physchem; pH 2): 8%
- degraded at 4 h (physchem; pH 2): 30%
- degraded at 0.25 h (physchem; pH 3): 3%
- degraded at 0.5 h (physchem; pH 3): 6%
- degraded at 1 h (physchem; pH 3): 12%
- degraded at 4 h (physchem; pH 3): 52%
- degraded at 0.25 h (physchem; pH 4): 4%
- degraded at 0.5 h (physchem; pH 4): 9%
- degraded at 1 h (physchem; pH 4): 17%
- degraded at 4 h (physchem; pH 4): 75%

Molecule: C[S+](CC[C@H](N)C(=O)[O-])C[C@H]1O[C@@H](n2cnc3c(N)ncnc32)[C@H](O)[C@@H]1O (stereo partly shown) [SAM. H2 SO4, S-adenosylmethionine]
- degraded at 1440 h [3]: 80%
- degraded at 2880 h [3]: 100%
- degraded at 4320 h [3]: 100%
- degraded at 5760 h [3]: 100%
- degraded at 8640 h [3]: 100%

Molecule: CCCCC(=O)N[C@@H](CC[S+](C)C[C@H]1O[C@@H](n2cnc3c(N)ncnc32)[C@H](OC(=O)CCCC)[C@@H]1OC(=O)CCCC)C(=O)[O-] (stereo partly shown) [H COC4 H9 COC4 H9]
- Fa at 2 h [1]: 87%
- PRODUCT ABSORPTION intestine inside out [2]: 0.031 nmoles/h/mg tissue

Molecule: C[S+](CC[C@H](NC(=O)CCCC(=O)O)C(=O)[O-])C[C@H]1O[C@@H](n2cnc3c(N)ncnc32)[C@H](O)[C@@H]1O (stereo partly shown) [H Glutaryl H, SAM glutaryl]
- Fa at 2 h [1]: 23%
- PRODUCT ABSORPTION intestine inside out [2]: 0.018 nmoles/h/mg tissue

Molecule: CCCCC(=O)N[C@@H](CC[S+](C)C[C@H]1O[C@@H](n2cnc3c(N)ncnc32)[C@H](O)[C@@H]1O)C(=O)[O-] (stereo partly shown) [H COC4 H9 H]
- Fa at 2 h [1]: 18%
- PRODUCT ABSORPTION intestine inside out [2]: 0.028 nmoles/h/mg tissue

Molecule: C[S+](CC[C@H](NC(=O)c1ccccc1)C(=O)[O-])C[C@H]1O[C@@H](n2cnc3c(N)ncnc32)[C@H](O)[C@@H]1O (stereo partly shown) [H COC6 H5 H, SAM benzoyl]
- Fa at 2 h [1]: 12%
- PRODUCT ABSORPTION intestine inside out [2]: 0.017 nmoles/h/mg tissue

Molecule: SAM n-dodecyl [H Dodecyl H]
- PRODUCT ABSORPTION in sacs (intestinal sacs): 65 % of dose
- PRODUCT ABSORPTION intestine inside out [2]: 0.019 nmoles/h/mg tissue

Molecule: CCCCCCOC(=O)[C@@H](N)CC[S+](C)C[C@H]1O[C@@H](n2cnc3c(N)ncnc32)[C@H](O)[C@@H]1O (stereo partly shown) [C6 H13 H H, SAM n-hexyl ester]
- Fa at 2 h [1]: 67%
- PRODUCT ABSORPTION intestine inside out [2]: 0.023 nmoles/h/mg tissue

Molecule: CC(=O)N[C@@H](CC[S+](C)C[C@H]1O[C@@H](n2cnc3c(N)ncnc32)[C@H](O)[C@@H]1O)C(=O)[O-] (stereo partly shown) [SAM monoacetyl. 2 H2 SO4, SAM monoacetyl]
- degraded at 1440 h ([3]; 45° C., 60 days, read-out: Degradation at 45° C. after 60 days): 0%
- degraded at 2880 h ([3]; 45° C., 120 days, read-out: Degradation at 45° C. after 120 days): 1.4%
- degraded at 4320 h ([3]; 45° C., 180 days, read-out: Degradation at 45° C. after 180 days): 3%
- degraded at 5760 h ([3]; 45° C., 240 days, read-out: Degradation at 45° C. after 240 days): 4.6%
- degraded at 8640 h ([3]; 45° C., 360 days, read-out: Degradation at 45° C. after 360 days): 5.5%

Molecule: SAM n-octyl [H Octyl H]
- PRODUCT ABSORPTION in sacs (intestinal sacs): 62 % of dose
- PRODUCT ABSORPTION intestine inside out [2]: 0.023 nmoles/h/mg tissue
